Measured values taken from patent US20240325574A1, “EXTRADOMAIN B FIBRONECTIN TARGETING PEPTIDES AND DERIVATIVES FOR CANCER IMAGING AND THERAPY” (MOLECULAR THERANOSTICS, LLC, priority 2023, published 2024).
Where no end group is shown, it is not given here. S0456 = NIR dye, conjugated to the peptide N-terminus

Experiments:
EDB fragment = EDB fragment (Homo sapiens, UniProt P02751); settings: background, earlier work (U.S. Pat. No. 10,653,801); cited from earlier work
HSC3 HNC xenograft [1] = assay: Topical staining of exposed HSC3 HNC xenograft tumor, fluorescence imaging; assay type: in vivo, mouse; settings: 1 drop of 40 μM applied topically, rinsed with PBS after 2 minutes
Source text: (§1) FIGS. 3A and 3B provide images showing (A) fluorescence images of the organ tissues of the mice received IV injection of ZD2-S0456, showing ZD2-S0456 binding to HSC3 HNC xenograft. 1: kidney; 2: heart; 3: spleen; 4: brain; 5: muscle; 6: tumor; 7: liver; 8: lung. […] (B) Fluorescence image of mice bearing HSC3 HNC xenografts topically stained with PBS or ZD2-Cy5.5.
(§2) The specific staining of ZD2-S0456 to human HNC tumors comparing to normal tissues was investigated after intravenous injection of ZD2-S0456 in mouse xenograft models (FIG. 3). Mice were injected with 10 nmol/mouse ZD2-S0456 or PBS and euthanized 60 minutes post injection to collect tumor tissue and major organs. […] Furthermore, ZD2-S0456 can identify the tumor margin by topical staining of mouse xenograft tumors. The skin atop the HSC3 HNC xenograft tumor was removed to expose the tumor while the mouse was under anesthesia. Then 1 drop of 40 μM ZD2-Cy5.5 was topically applied to the tumor and surrounding tissues, which was rinsed with PBS after 2 minutes.

[2] = system: human breast cancer MDA-MB-231 TNBC xenograft; assay: Fluorescence imaging after intravenous injection in MDA-MB-231 TNBC xenograft mice; assay type: in vivo; settings: 10 nmol/mouse IV, imaged 60 minutes post injection
Protocol: FIG. 4 provide a fluorescence image of mouse bearing human breast cancer MDA-MB-231 TNBC xenograft after IV injection of ZD2-S0456, showing ZD2-S0456 staining to the tumor.
The specific staining of ZD2-S0456 to human TNBC tumors comparing to normal tissues was investigated after intravenous injection of ZD2-S0456 in mouse xenograft models (FIG. 4). Mouse were injected with 10 nmol/mouse ZD2-S0456 and imaged 60 minutes post injection.

HSC3 HNC xenograft [3] = assay: Fluorescence imaging of tumor and major organs after intravenous injection in HSC3 HNC xenograft mice; settings: 10 nmol/mouse IV, 60 minutes post injection, ex vivo tissue imaging; no signal after PBS
Source text: as §1, §2

EDB fragment, sequence (P02751 1271-1359 limits assumed): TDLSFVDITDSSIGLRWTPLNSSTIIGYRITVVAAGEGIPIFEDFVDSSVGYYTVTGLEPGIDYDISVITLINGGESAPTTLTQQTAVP

In the case of TVRTSAD [ZD2], the “Binding affinity to the EDB fragment” value (EDB fragment) is given as “moderate binding affinity”.
In the case of “ZD2-Cy5.5: ZD2 targeted fluorescence dye (Cy5.5) (TVRTSAD; also: Cy5.5 dye conjugated)”, the “Fluorescence signal on tumor vs surrounding tissues after topical staining” value (HSC3 HNC xenograft [1]) is reported as “strong fluorescence signal on the tumor but not the surrounding tissues”.
For “ZD2-S0456: ZD2 peptide with NIR dye S0456 conjugated to its N-terminus (S0456-TVRTSAD-OH)”, the “Fluorescence signal in the tumor compared to surrounding normal tissues” value [2] was “stronger signal in the tumor” and the “Fluorescence signal in the tumor” value (HSC3 HNC xenograft [3]) was “strong signal in the tumor”.
